Laboratory results from paper PMC12010937, “Evaluation of FXR Activity in Pollutants Identified in Sewage Sludge and Subsequent in Vitro and in Vivo Characterization of Metabolic Effects of Triphenyl Phosphate” (Environmental Health Perspectives, 2025).
Values joined by “and” are separate entries in the source; they are usually repeats but may differ in a detail not shown here. Identical values can stand only once. Counter-ions that a name gives are not always drawn. Like-named read-outs stand apart in the source and are kept apart here.

How the values were obtained:
[1] = target: T1, human FXR-LBD (GST-FXR-LBD) (Homo sapiens, UniProt Q96RI1); experiment: HTRF coactivator recruitment assay, antagonist mode (in the presence of 50 μM CDCA); type: biochemical; settings: for activity at 1.95 µM / activity at 3.9 µM / activity at 31.25 µM / activity at 62.5 µM / activity at 250 µM / activity at 0.98 µM / activity at 7.8 µM / activity at 125 µM / activity at […]: read-out: Relative antagonist activity (%); for Relative activity, antagonist mode: 50 μM compound in the presence of 50 μM CDCA, standardized against positive control DY268 (50 μM = 100%); for IC50: read-out: IC50, inhibition of CDCA-induced coactivator recruitment to FXR
T1 construct: the human FXR-LBD (residues 234–472) was expressed as a GST fusion protein GST-FXR-LBD; made in house; host or cells: E. coli BL21(DE3)
T1 sequence (Q96RI1 234-472 isoform Q96RI1-2): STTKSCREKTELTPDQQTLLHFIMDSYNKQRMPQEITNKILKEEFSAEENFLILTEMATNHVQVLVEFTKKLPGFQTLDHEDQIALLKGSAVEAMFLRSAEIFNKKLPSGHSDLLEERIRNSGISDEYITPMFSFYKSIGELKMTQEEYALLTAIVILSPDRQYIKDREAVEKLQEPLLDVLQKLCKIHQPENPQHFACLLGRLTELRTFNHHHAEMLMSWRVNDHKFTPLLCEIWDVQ

[2] = target: T2, FXR (pCDNA3.1-hFXR, FXRE-luc) (Homo sapiens, UniProt Q96RI1); experiment: cell-based; type: cell-based
T2 construct: host or cells: HEK 293T
T2 sequence (Q96RI1 1-486): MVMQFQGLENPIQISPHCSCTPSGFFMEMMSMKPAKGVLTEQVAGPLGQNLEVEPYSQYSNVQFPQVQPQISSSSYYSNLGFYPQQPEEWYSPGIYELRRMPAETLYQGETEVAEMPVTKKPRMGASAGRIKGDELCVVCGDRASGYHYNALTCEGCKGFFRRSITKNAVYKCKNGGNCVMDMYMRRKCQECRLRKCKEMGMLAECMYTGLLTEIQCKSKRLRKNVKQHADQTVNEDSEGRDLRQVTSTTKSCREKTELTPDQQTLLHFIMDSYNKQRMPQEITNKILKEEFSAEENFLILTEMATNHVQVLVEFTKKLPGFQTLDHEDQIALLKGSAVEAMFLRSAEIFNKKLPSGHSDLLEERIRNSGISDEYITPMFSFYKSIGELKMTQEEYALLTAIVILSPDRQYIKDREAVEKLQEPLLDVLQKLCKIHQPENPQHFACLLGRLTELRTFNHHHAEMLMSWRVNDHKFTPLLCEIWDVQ

[3] = target: T1, human FXR-LBD (GST-FXR-LBD); experiment: HTRF coactivator recruitment assay, agonist mode; type: biochemical
[4] = 1.95 μM compound + 50 μM CDCA, replicates
[5] = 3.90 μM compound + 50 μM CDCA, replicates
[6] = 31.25 μM compound + 50 μM CDCA, replicates
[7] = 62.50 μM compound + 50 μM CDCA, replicates
[8] = 250.00 μM compound + 50 μM CDCA, standardized to DMSO and 50 μM CDCA, replicates
[9] = HEK-293T, read-out: Relative luciferase activity (%)
[10] = 50 μM compound, standardized against positive control CDCA (50 μM = 100%)
[11] = 0.98 μM compound + 50 μM CDCA, replicates
[12] = 7.80 μM compound + 50 μM CDCA, replicates
[13] = 125.00 μM compound + 50 μM CDCA, replicates
[14] = […] compound + 50 μM CDCA, replicates
[15] = 10 μM and 25 μM, in the presence of 50 μM CDCA, HEK 293T
[16] = 10 μM compound in the presence of 50 μM CDCA, DMSO 0%, 50 μM CDCA 100%, HEK 293T, replicates
[17] = 25 μM compound in the presence of 50 μM CDCA, DMSO 0%, 50 μM CDCA 100%, HEK 293T, replicates

## CC(=O)c1cc2c(cc1C)C(C)(C)C(C)CC2(C)C (centres unmarked) [AHTN, tonalid]
[1]; [4]
  activity at 1.95 µM: 96.2%
[1]; [5]
  activity at 3.9 µM: 93.9%
[1]; [6]
  activity at 31.25 µM: 80.9%
[1]
  Relative activity, antagonist mode: 48.54%
  IC50: 59.5 µM
  activity at 0.98 µM: 93.5%
  activity at 7.8 µM: 94.1%
  activity at 125 µM: 41.4%
  activity at […]: 89.3%
[1]; [7]
  activity at 62.5 µM: 61.4%
[1]; [8]
  activity at 250 µM: 31.2%
[2]
  Luciferase activity compared with DMSO control (in words): significantly less luciferase activity
[2]; [9]
  activity at 25 µM: 40.1%
[3]
  Relative activity, agonist mode: 2.19%

## CCCCOC(=O)CC(CC(=O)OCCCC)(OC(C)=O)C(=O)OCCCC [ATBC, acetyl tributyl citrate]
[1]
  Relative activity, antagonist mode: 12.58%
[3]; [10]
  Relative activity, agonist mode: 2.49%

## CC(C)(C)c1cc(C=O)cc(C(C)(C)C)c1O [BHT-C, 3,5-Ditert-butyl-4-hydroxybenzaldehyde]
[1]
  Relative activity, antagonist mode: 6.36%
[3]; [10]
  Relative activity, agonist mode: 0.19%

## CCCCC(CC)COC(=O)c1ccccc1C(=O)OCC(CC)CCCC (centres unmarked) [DEHP, bis(2-ethylhexyl) phthalate]
[1]
  Relative activity, antagonist mode: 4.48%
[3]
  Relative activity, agonist mode: 0.27%

## COc1cccc(Cn2cc(C(=O)Nc3ccc(C)c(S(=O)(=O)N4CCOCC4)c3)c(-c3ccc(C)cc3)n2)c1 [DY268]
[1]
  Relative activity, antagonist mode: 100.00%
[2]; 0.001 μM, dose-response, replicates
  Relative luciferase activity (%): 91.11% and 96.02% and 92.43%
[2]; 0.01 μM, dose-response, replicates
  Relative luciferase activity (%): 84.90% and 84.00% and 97.07%
[2]; 0.05 μM, dose-response, replicates
  Relative luciferase activity (%): 69.60% and 78.44% and 89.94%
[2]; 0.1 μM, dose-response, replicates
  Relative luciferase activity (%): 57.18% and 63.12% and 63.84%
[2]; 0.5 μM, dose-response, replicates
  Relative luciferase activity (%): 12.17% and 13.75% and 19.14%
[2]; 1 μM, dose-response, replicates
  Relative luciferase activity (%): -1.72% and -0.13% and 6.23%
[2]; 5 μM, dose-response, replicates
  Relative luciferase activity (%): -18.25% and -19.25% and -13.03%
[2]; 10 μM, dose-response, replicates
  Relative luciferase activity (%): -15.95% and -18.33% and -14.15%
[2]; HEK 293T DLR assay, maximum exposure concentration
  Rate of FXR inhibition at the maximum exposure concentration: 116.14%
[2]; HEK 293T cell-based DLR assay, read-out: IC50, inhibition of FXR transcriptional activity
  IC50: 0.25 µM

## O=C1Nc2ccc(Cl)cc2[C@@](C#CC2CC2)(C(F)(F)F)O1 [EFV, efavirenz]
[1]; [11]
  Relative antagonist activity (%): 83.56% and 97.08%
  activity at 0.98 µM: 100%
[1]; [4]
  Relative antagonist activity (%): 96.79% and 93.64%
  activity at 1.95 µM: 101%
[1]; [5]
  Relative antagonist activity (%): 97.17% and 94.87%
  activity at 3.9 µM: 94.6%
[1]; [12]
  Relative antagonist activity (%): 92.66% and 89.45%
  activity at 7.8 µM: 91%
[1]; [6]
  Relative antagonist activity (%): 63.55% and 62.84%
  activity at 31.25 µM: 61.1%
[1]
  Relative activity, antagonist mode: 80.64%
  IC50: 40.6 µM
[1]; [7]
  Relative antagonist activity (%): 18.58% and 19.89%
  activity at 62.5 µM: 20.8%
[1]; [13]
  Relative antagonist activity (%): -1.08% and -0.91% and -0.84%
[1]; [8]
  Relative antagonist activity (%): -2.04% and -2.11% and -2.16%
[1]; [14]
  activity at […]: 82%
[2]; [15]
  Luciferase activity compared with DMSO control (in words): significantly less luciferase activity
[2]; [16]
  Relative luciferase activity (%): 29.3% and 36.3%
[2]; [17]
  Relative luciferase activity (%): 36.4% and 33.0% and 15.9%
[2]; HEK-293T, 10 μM compound in the presence of 50 μM CDCA, DMSO 0%, 50 μM CDCA 100%, HEK 293T, replicates, read-out: Relative luciferase activity (%)
  activity at 10 µM: 26.9%
[3]; [10]
  Relative activity, agonist mode: 1.60%

## N#Cc1nn(-c2c(Cl)cc(C(F)(F)F)cc2Cl)c(N)c1S(=O)(=O)C(F)(F)F [FIP-S, fipronil sulfone]
[1]
  Relative activity, antagonist mode: 13.98%
[3]
  Relative activity, agonist mode: 2.06%

## CC1COC(=O)c2cc3c(cc21)C(C)(C)C(C)C3(C)C (centres unmarked) [GAX, galaxolidone]
[1]
  Relative activity, antagonist mode: 14.46%
[3]
  Relative activity, agonist mode: 0.32%

## C/C=C1\C(=O)C[C@H]2[C@@H]3CCC4=CC(=O)CC[C@]4(C)[C@H]3CC[C@]12C [GS, guggulsterone]
[2]; HEK-293T, 0.01 μM, dose-response, replicates, read-out: Relative luciferase activity (%)
  activity at 0.01 µM: 96.6%
[2]; HEK-293T, 0.1 μM, dose-response, replicates, read-out: Relative luciferase activity (%)
  activity at 0.1 µM: 81%
[2]; HEK-293T, 0.5 μM, dose-response, replicates, read-out: Relative luciferase activity (%)
  activity at 0.5 µM: 81%
[2]; HEK-293T, 1 μM, dose-response, replicates, read-out: Relative luciferase activity (%)
  activity at 1 µM: 79.6%
[2]; HEK-293T, 5 μM, dose-response, replicates, read-out: Relative luciferase activity (%)
  activity at 5 µM: 66.4%
[2]; HEK-293T, 10 μM, dose-response, replicates, read-out: Relative luciferase activity (%)
  activity at 10 µM: 53.9%
[2]; HEK-293T, 25 μM, dose-response, replicates, read-out: Relative luciferase activity (%)
  activity at 25 µM: 30.5%
[2]; HEK-293T, 50 μM, dose-response, replicates, read-out: Relative luciferase activity (%)
  activity at 50 µM: 29.9%

## Clc1ccc(COC(Cn2ccnc2)c2ccc(Cl)cc2Cl)c(Cl)c1 (centres unmarked) [MCZ, miconazole]
[1]; [11]
  activity at 0.98 µM: 101%
[1]; [4]
  activity at 1.95 µM: 96.5%
[1]; [5]
  activity at 3.9 µM: 92.9%
[1]; [12]
  activity at 7.8 µM: 77.8%
[1]; [6]
  activity at 31.25 µM: 31.7%
[1]; [7]
  activity at 62.5 µM: 15.9%
[1]; [13]
  activity at 125 µM: 4.54%
[1]; [8]
  activity at 250 µM: 2.51%
[1]; [14]
  activity at […]: 61.6%
[1]
  IC50: 20.5 µM
[2]; [15]
  Luciferase activity compared with DMSO control (in words): significantly less luciferase activity
[2]; [16]
  Relative luciferase activity (%): 93.6% and 60.3% and 85.8%
[2]; [17]
  Relative luciferase activity (%): 77.5% and 67.2% and 91.8%
[3]; [10]
  Relative activity, agonist mode: 0.00%

## CCCCCCCC/C=C\CCCCCCCC(=O)NCCO [OEA, oleoyl ethanolamide]
[1]; [11]
  activity at 0.98 µM: 106%
[1]; [4]
  activity at 1.95 µM: 114%
[1]; [5]
  activity at 3.9 µM: 110%
[1]; [12]
  activity at 7.8 µM: 110%
[1]; [6]
  activity at 31.25 µM: 102%
[1]; [7]
  activity at 62.5 µM: 101%
[1]; [13]
  activity at 125 µM: 96.2%
[1]; [8]
  activity at 250 µM: 89.5%
[1]; [14]
  activity at […]: 104%
[1]
  IC50: 34 µM
[2]; [16]
  Relative luciferase activity (%): 99.0% and 100.1% and 128.0%
[2]; [17]
  Relative luciferase activity (%): 96.5% and 110.1%
[2]; HEK-293T, 25 μM compound in the presence of 50 μM CDCA, DMSO 0%, 50 μM CDCA 100%, HEK 293T, replicates, read-out: Relative luciferase activity (%)
  activity at 25 µM: 110%
[3]
  Relative activity, agonist mode: 0.00%

## CCCCCCCCCCCCCCCC(=O)NCCO [PEA, palmitoyl ethanolamide]
[1]
  Relative activity, antagonist mode: 3.94%
[3]; [10]
  Relative activity, agonist mode: 0.57%

## O=C(Nc1ccc(Cl)cc1)Nc1ccc(Cl)c(Cl)c1 [TCC, triclocarban]
[1]
  Relative activity, antagonist mode: 10.80%
[3]
  Relative activity, agonist mode: 0.44%

## CCCCC(CC)COP(=O)(OCC(CC)CCCC)OCC(CC)CCCC (centres unmarked) [TEHP, tris(2-ethylhexyl) phosphate]
[1]
  Relative activity, antagonist mode: 17.25%
[3]
  Relative activity, agonist mode: 0.00%

## Oc1cc(Cl)ccc1Oc1ccc(Cl)cc1Cl [TLS, triclosan]
[1]; [4]
  activity at 1.95 µM: 91.4%
[1]; [5]
  activity at 3.9 µM: 87.5%
[1]; [6]
  activity at 31.25 µM: 34.6%
[1]
  Relative activity, antagonist mode: 65.82%
  IC50: 28.2 µM
  activity at 0.98 µM: 91%
  activity at 7.8 µM: 79.8%
  activity at […]: 61.3%
[1]; [7]
  activity at 62.5 µM: 4.81%
[2]
  Luciferase activity compared with DMSO control (in words): significantly less luciferase activity
[2]; [9]
  activity at 10 µM: 24.8%
[3]
  Relative activity, agonist mode: 13.3% and 13.26%

## CC(C)(C)CC(C)(C)c1ccc(O)c(-n2nc3ccccc3n2)c1 [UV329, octrizole]
[1]
  Relative activity, antagonist mode: 18.06%
[3]; [10]
  Relative activity, agonist mode: 0.085%
